Measured values as given in PubChem BioAssay AID2060493 (Molecular Pharmacology Branch, DTP, NCI, 2025).

System: 616215-338-R-J1-PDC tumor spheroids, viability
Assay: Anticancer human tumor 616215-338-R-J1-PDC patient-derived colon adenocarcinoma cell line growth inhibition [GQUAD]
Settings: spheroids with HUVEC and MSC; for IC50: curve of first compound; for viability, T/C: stronger effect = lower value
In short: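 Viability of tumor cells grown as complex spheroids with endothelial and stromal cells, exposed to drug combinations. Top concentration at or near clinical Cmax (else 10 microM), diluted in half-log increments.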

[1] = second compound 0.0316 µM, first compound 0.0316 µM
[2] = second compound 0.0316 µM, first compound 0.316 µM
[3] = second compound 0.1 µM, first compound 0.0316 µM
[4] = second compound 0.1 µM, first compound 0.316 µM
[5] = second compound 0.316 µM, first compound 0.0316 µM
[6] = second compound 0.316 µM, first compound 0.316 µM
[7] = second compound 1 µM, first compound 0.0316 µM
[8] = second compound 1 µM, first compound 0.316 µM
[9] = second compound 3.16 µM, first compound 0.0316 µM
[10] = second compound 3.16 µM, first compound 0.316 µM
[11] = second compound 10 µM, first compound 0.0316 µM
[12] = second compound 10 µM, first compound 0.316 µM
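Note: spheroids exposed to agents for 7 days before readout.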
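Throughout, for viability, T/C: percent viability relative to DMSO vehicle control wells taken as 100%.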

`O=C(c1cc(Cc2n[nH]c(=O)c3ccccc23)ccc1F)N1CCN(C(=O)C2CC2)CC1` + CN(C)c1ccc(Nc2c3ccc(NC(=O)CCN4CCCC4)cc3nc3cc(NC(=O)CCN4CCCC4)ccc23)cc1 gave an IC50 (second compound 0.0316 µM) greater than 10000 nM, an IC50 (second compound 0.1 µM) greater than 10000 nM and an IC50 (second compound 0.316 µM) greater than 10000 nM. The IC50 (second compound 1 µM) was greater than 10000 nM, the IC50 (second compound 3.16 µM) was greater than 10000 nM and the IC50 (second compound 10 µM) was greater than 10000 nM. For the same molecule, the viability, T/C [1] was 100%, the viability, T/C (second compound 0.0316 µM, first compound 0.1 µM) was 95.7% and the viability, T/C [2] was 103%. It also gave a viability, T/C (second compound 0.0316 µM, first compound 1 µM) of 111%, a viability, T/C (second compound 0.0316 µM, first compound 3.16 µM) of 110% and a viability, T/C (second compound 0.0316 µM, first compound 10 µM) of 71.9%. It also gave a viability, T/C [3] of 103%, a viability, T/C (second compound 0.1 µM, first compound 0.1 µM) of 102% and a viability, T/C [4] of 104%. For the same molecule, the viability, T/C (second compound 0.1 µM, first compound 1 µM) was 103%, the viability, T/C (second compound 0.1 µM, first compound 3.16 µM) was 111% and the viability, T/C (second compound 0.1 µM, first compound 10 µM) was 74.8%. For the same molecule, the viability, T/C [5] was 104%, the viability, T/C (second compound 0.316 µM, first compound 0.1 µM) was 114% and the viability, T/C [6] was 112%. It also gave a viability, T/C (second compound 0.316 µM, first compound 1 µM) of 106%, a viability, T/C (second compound 0.316 µM, first compound 3.16 µM) of 99.3% and a viability, T/C (second compound 0.316 µM, first compound 10 µM) of 68.6%. It also gave a viability, T/C [7] of 108%, a viability, T/C (second compound 1 µM, first compound 0.1 µM) of 100% and a viability, T/C [8] of 96.9%. For the same molecule, the viability, T/C (second compound 1 µM, first compound 1 µM) was 97.3%, the viability, T/C (second compound 1 µM, first compound 3.16 µM) was 104% and the viability, T/C (second compound 1 µM, first compound 10 µM) was 69%. The viability, T/C [9] was 112%, the viability, T/C (second compound 3.16 µM, first compound 0.1 µM) was 97.8% and the viability, T/C [10] was 98.8%. It also gave a viability, T/C (second compound 3.16 µM, first compound 1 µM) of 109%, a viability, T/C (second compound 3.16 µM, first compound 3.16 µM) of 105% and a viability, T/C (second compound 3.16 µM, first compound 10 µM) of 57.4%. The viability, T/C [11] was 96.6%, the viability, T/C (second compound 10 µM, first compound 0.1 µM) was 82.9% and the viability, T/C [12] was 99.3%. The viability, T/C (second compound 10 µM, first compound 1 µM) was 99.6%, the viability, T/C (second compound 10 µM, first compound 3.16 µM) was 67% and the viability, T/C (second compound 10 µM, first compound 10 µM) was 54.9%.

`CCc1c2c(nc3ccc(O)cc13)-c1cc3c(c(=O)n1C2)COC(=O)[C@]3(O)CC` + CN(C)c1ccc(Nc2c3ccc(NC(=O)CCN4CCCC4)cc3nc3cc(NC(=O)CCN4CCCC4)ccc23)cc1 showed an IC50 (second compound 0.0316 µM) of 14.3 nM, an IC50 (second compound 0.1 µM) of 17.4 nM and an IC50 (second compound 0.316 µM) of 14.6 nM. For the same molecule, the IC50 (second compound 1 µM) was 12.4 nM, the IC50 (second compound 3.16 µM) was 11.3 nM and the IC50 (second compound 10 µM) was 8.62 nM. The viability, T/C (second compound 0.0316 µM, first compound 0.000999 µM) was 93.8%, the viability, T/C (second compound 0.0316 µM, first compound 0.00316 µM) was 92.4% and the viability, T/C (second compound 0.0316 µM, first compound 0.00999 µM) was 53.7%. For the same molecule, the viability, T/C [1] was 32.6%, the viability, T/C (second compound 0.0316 µM, first compound 0.0999 µM) was 18.1% and the viability, T/C [2] was 8.35%. It also gave a viability, T/C (second compound 0.1 µM, first compound 0.000999 µM) of 112%, a viability, T/C (second compound 0.1 µM, first compound 0.00316 µM) of 99.8% and a viability, T/C (second compound 0.1 µM, first compound 0.00999 µM) of 70.3%. For the same molecule, the viability, T/C [3] was 28.9%, the viability, T/C (second compound 0.1 µM, first compound 0.0999 µM) was 13.8% and the viability, T/C [4] was 12.4%. The viability, T/C (second compound 0.316 µM, first compound 0.000999 µM) was 101%, the viability, T/C (second compound 0.316 µM, first compound 0.00316 µM) was 96.7% and the viability, T/C (second compound 0.316 µM, first compound 0.00999 µM) was 59.9%. The viability, T/C [5] was 27%, the viability, T/C (second compound 0.316 µM, first compound 0.0999 µM) was 18% and the viability, T/C [6] was 8.81%. It also gave a viability, T/C (second compound 1 µM, first compound 0.000999 µM) of 97.3%, a viability, T/C (second compound 1 µM, first compound 0.00316 µM) of 94.3% and a viability, T/C (second compound 1 µM, first compound 0.00999 µM) of 46.9%. The viability, T/C [7] was 35%, the viability, T/C (second compound 1 µM, first compound 0.0999 µM) was 20.5% and the viability, T/C [8] was 10.3%. It also gave a viability, T/C (second compound 3.16 µM, first compound 0.000999 µM) of 98.3%, a viability, T/C (second compound 3.16 µM, first compound 0.00316 µM) of 86.8% and a viability, T/C (second compound 3.16 µM, first compound 0.00999 µM) of 49.3%. For the same molecule, the viability, T/C [9] was 30.2%, the viability, T/C (second compound 3.16 µM, first compound 0.0999 µM) was 19.3% and the viability, T/C [10] was 12.6%. For the same molecule, the viability, T/C (second compound 10 µM, first compound 0.000999 µM) was 95.7%, the viability, T/C (second compound 10 µM, first compound 0.00316 µM) was 73.9% and the viability, T/C (second compound 10 µM, first compound 0.00999 µM) was 46%. For the same molecule, the viability, T/C [11] was 25.9%, the viability, T/C (second compound 10 µM, first compound 0.0999 µM) was 13.2% and the viability, T/C [12] was 8.62%.
